From patent publication US10357478B2, “Polyamide compound and pharmaceutical composition for treating mitochondrial genetic diseases” (Triplex Therapeutics Inc., priority 2011, dated 2019)

Legend:
143B cells = test: Cytotoxicity in DMEM without sodium pyruvate and uridine, 143B cells; type: cell-based; conditions: 100 nM, 500 nM or 1 μM, 30 hours or 1 week
Experimental: (§1) 143B cells or HeLa cells were cultured in a medium prepared by adding 1 μM of ML1 polyamide to a 10% FBS-added DMEM (free of sodium pyruvate and uridine) wherein respiratory chain-defective cells are inviable. The synthesis of the respiratory chain proteins in mitochondria is essential to life-support, and only a slight dysfunction thereof results in cell death.
(§2) 143B cells or HeLa cells were cultured for a week in normal DMEM, complete DMEM (containing 0.1 mg/mL of sodium pyruvate, and 50 μg/mL of uridine), complete DMEM with the ML1 polyamide, or DMEM with the ML1 polyamide, and survival or death was observed.
(§3) In the culture of 143B cells, the MLI polyamide was added at the concentration of 100 nM, 500 nM, or 1 μM, whereas in the culture of Hela cells, the MLI polyamide was added at the concentration of 1 μM.

[1] = test system: wild-type dsDNA (normal (wild-type) mtDNA template, 21 bases containing the 3243rd base); test: EMSA (electrophoretic mobility shift assay), binding to wild-type oligo-DNA; conditions: 10^−4 M polyamide, 1 hour at 37° C.
Experimental: (§4) In this Example, a binding specific to the base sequence was confirmed in vitro between the ML1 polyamide and the target. The assay was carried out in EMSA (electrophoretic mobility shift assay). The wild-type oligo-DNA with 21 bases containing the 3243rd base on which the A3243G mutation exists and the A3243G mutation oligo-DNA thereof were produced. A sense-stranded DNA with FITC bound at 5′-end and an antisense-stranded DNA were thermally denatured, slowly cooled, and annealed to obtain dsDNAs having the following sequence:
(§5) To dsDNA (50 pmol/10 μL), 40 μL of ddH2O was added and the whole was diluted to 1 pmol/μL. 4 pmol of the resulting dsDNA were mixed with the MLI polyamide solution so that the concentration became 10^−4M, and incubated for 1 hour at 37° C. Then, the sample was mixed with a loading buffer and applied on 20% non-denatured acrylamide gel (0.5×TBE) which was pre-run for 10 minutes at 350 V. An electrophoresis was carried out at 4′C and 100 V until BPB reached ¾ of the lower end of the gel, and a shift of the band was detected by LAS-3000 (Fuji Film).
(§6) The composition of the non-denatured acrylamide gel used in EMSA is shown as below: […]

HeLa cells = test: Cytotoxicity in DMEM without sodium pyruvate and uridine, HeLa cells; type: cell-based; conditions: 1 μM, 30 hours or 1 week
Experimental: as §1, §2, §3

[2] = test system: A3243G mutant dsDNA (A3243G mutation mtDNA template); test: EMSA (electrophoretic mobility shift assay), binding to A3243G mutation oligo-DNA; conditions: 10^−4 M polyamide, 1 hour at 37° C.
Experimental: as §4, §5, §6

[3] = test system: 2SD cybrid cells (MELAS cybrid cells); test: Replication of wild-type mtDNAs in MELAS cybrid cells (PCR-RFLP); type: cell-based; conditions: for increase level of wild-type mtDNAs in comparison with control: long-term (7, 15 or 35 days); for increase of wild-type mtDNAs: 35 days
Experimental: The MLI polyamide was given to the cultivated MELAS cybrid cells to confirm if the wild-type mtDNAs were positively reproduced in cells.
2SD cybrid cells were seeded on a 10 cm dish, and the MLI polyamide dissolved in 50% DMSO was added to the complete DMEM so that a final concentration thereof became 1 μM, 5 μM, or 10 μM. The medium to which the MLI polyamide was added was replaced every third day. In the control experiments, DMSO with the same diluted rate was added to the medium. The polyamide solution in 50% DMSO solution was diluted with ddH2O so that the concentration of DMSO in the medium became 0.1% or less, or 0.05% at a maximum.
Total DNAs were extracted from the cybrid cells treated by the MLI polyamide 14 days later, PCR-RFLP was then carried out, the bands were quantitatively analyzed by microchip electrophoresis (MCE-202 MultiNA; Shimadzu Corporation), and a mutation rate of the cybrid cells was analyzed.
Further, long-term effects were analyzed when the concentration of the MLI polyamide in the medium was 1 μM, 500 nM, or 100 nM. Total DNAs were extracted from the cybrid cells 7 days, 15 days, or 35 days later, PCR-RFLP was then carried out, electrophoresis was performed on 2% agarose gel (1×TAE), and an increase level of the wild-type mtDNAs was measured.

[4] = 1 μM, 14 days, PCR-RFLP, microchip electrophoresis
[5] = 5 μM, 14 days, PCR-RFLP, microchip electrophoresis

## CC(=O)Nc1cc(C(=O)Nc2cc(C(=O)Nc3cc(C(=O)NCCC(=O)Nc4cn(C)c(C(=O)Nc5cc(C(=O)Nc6cc(C(=O)NCCCC(=O)Nc7cn(C)c(C(=O)Nc8cn(C)c(C(=O)Nc9cc(C(=O)NCCC(=O)Nc%10cn(C)c(C(=O)Nc%11cc(C(=O)Nc%12cn(C)c(C(=O)NCCC(=O)NCCCN(C)C)n%12)n(C)c%11)n%10)n(C)c9)n8)n7)n(C)c6)n(C)c5)n4)n(C)c3)n(C)c2)n(C)c1 [ML1 polyamide, Ac-Py-Py-Py-β-Im-Py-Py-γ-Im-Im-Py-β-Im-Py-Im-β-Dp]
143B cells
  morphological changes or cell cytotoxicity: did not show any morphological changes or cell cytotoxicity
[1]
  shift of the band of wild-type dsDNA in EMSA: significantly shifted
[1]; listed as MLI polyamide
  shift of the band of wild-type dsDNA in EMSA: clear shift of the band
HeLa cells
  morphological changes or cell cytotoxicity: did not show any morphological changes or cell cytotoxicity
[2]
  shift of the band of A3243G mutant dsDNA in EMSA: no significant shift
[2]; listed as MLI polyamide
  shift of the band of A3243G mutant dsDNA in EMSA: not clearly observed
[3]; 100 nM, PCR-RFLP, agarose gel
  increase level of wild-type mtDNAs in comparison with control: grossly visible increase level
[3]; 500 nM, 15 days, agarose gel
  increase level of wild-type mtDNA: significant increase level
[3]; 500 nM, agarose gel
  increase of wild-type mtDNAs: continuous increase level
[3]; 500 nM, agarose gel, listed as MLI polyamide
  increase of wild-type mtDNAs: continuous increase
[3]; 500 nM, PCR-RFLP, agarose gel
  increase level of wild-type mtDNAs in comparison with control: grossly visible increase level
[3]; [4]
  increase level of wild-type mtDNA: increase levels of wild-type mtDNA
  mutation rate of the cybrid cells: decrease of the mutation rate
[3]; 1 μM, 14 days, PCR-RFLP, microchip electrophoresis, listed as MLI polyamide
  increase level of wild-type mtDNA: concentration-dependent increase level
[3]; 1 μM, PCR-RFLP, agarose gel
  increase level of wild-type mtDNAs in comparison with control: grossly visible increase level
[3]; [5]
  increase level of wild-type mtDNA: increase levels of wild-type mtDNA
  mutation rate of the cybrid cells: decrease of the mutation rate
[3]; 5 μM, 14 days, PCR-RFLP, microchip electrophoresis, listed as MLI polyamide
  increase level of wild-type mtDNA: concentration-dependent increase level
